Results from US20250019385A1, “SPIROCYCLIC ANNULATED 2-AMINO-3-CYANO THIOPHENES AND DERIVATIVES FOR THE TREATMENT OF CANCER” (Boehringer Ingelheim International GmbH, priority 2023, published 2025).

Legend:
[1] = biological target: KRAS (G12D)::CRAF protein::protein interaction (Homo sapiens (Human), UniProt P01116, G12D); assay: KRAS TR-FRET assay (KRAS G12D::CRAF, GTP); assay type: binding
Procedure: This assay measures the inhibitory effect of compounds on KRAS::CRAF protein::protein interactions in the presence of GTP using Time-resolved fluorescence energy transfer (TR-FRET).
The following wildtype or mutant alleles of KRAS and CRAF protein have been used at the given concentrations:
KRAS (G12D) 1-169, N-terminal 6His-tag, C-terminal avi-tag (Xtal BioStructures, Inc.); final assay concentration 15 nM,
CRAF Ras binding domain, GST-tag, TEV cleavage site (Boehringer Ingelheim in house protein prep); final assay concentration 15 nM.
Test compounds dissolved in DMSO were dispensed onto assay plates (Proxiplate 384 PLUS, white, PerkinElmer; 6008289) using an Access Labcyte Workstation with the Labcyte Echo 55x. For the chosen highest assay concentration of 100 μM, 150 nl of compound solution was transferred from a 10 mM DMSO compound stock solution. A series of eleven fivefold dilutions per compound was transferred to the assay plate, compound dilutions were tested in duplicates. DMSO was added as backfill to a total volume of 150 nl.
The assay runs on a fully automated robotic system. To 150 nl of compound dilution 15 μl of a mix including the respective KRAS allele, CRAF (e.g. KRAS (G12D)::CRAF; final assay concentrations see above), GTP nucleotide (Sigma G8877; final assay concentration 10 μM), Lance Eu—W1024 labeled Streptavidin (PerkinElmer, Cat No AD0063; final assay concentration 1.5 nM) and Anti-GST surelight APC (PerkinElmer, Cat No AD0059G; final assay concentration 30 nM) in assay buffer (1×PBS, 0.1% BSA, 0.05% Tween 20) are added into columns 1-23 and 15 μL of the solution without the respective KRAS allele were added to row 24.
Plates are kept at room temperature in a darkened incubator. After 60 minutes incubation time the signal is measured in a PerkinElmer Envision HTS Multilabel Reader using the TR-FRET LANCE Ultra specs from PerkinElmer.
Each plate contains 16 wells of a negative control (diluted DMSO instead of test compound; w respective KRAS allele; column 23) and 16 wells of a positive control (diluted DMSO instead of test compound; w/o respective KRAS allele; column 24).
IC50 values were calculated and analyzed with Boehringer Ingelheim's MEGALAB 50 application using a 4 parametric logistic model.
Tables of example compounds disclosed herein contain IC50 values determined using the above assays (see Table 44).

Ba/F3 cells KRAS G12D = assay: Ba/F3 proliferation assay (KRAS G12D); assay type: cell-based; conditions: Mus musculus, BaF3, 72 h, AlamarBlue viability
Procedure: (§1) Ba/F3 cells are ordered from DSMZ (ACC300, Lot17) and grown in RPMI-1640 (ATCC 30-2001)+10% FCS+10 ng/mL IL-3 at 37° C. in 5% […] atmosphere. Plasmids containing KRASG12 mutants (i.e. […], G12C, G12V) are obtained from GeneScript. To generate KRASG12-dependent Ba/F3 models, Ba/F3 cells are transduced with retroviruses containing vectors that harbor KRASG12 isoforms. Platinum-E cells (Cell Biolabs) are used for retrovirus packaging. Retrovirus is added to Ba/F3 cells. To ensure infection, 4 μg/mL polybrene is added and cells are spinfected. Infection efficiency is confirmed by measuring GFP-positive cells using a cell analyzer. Cells with an infection efficiency of 10% to 20% are further cultivated and puromycin selection with 1 μg/mL is initiated. As a control, parental Ba/F3 cells are used to show selection status. Selection is considered successful when parental Ba/F3 cells cultures died. To evaluate the transforming potential of KRASG12 mutations, the growth medium is no longer supplemented with IL-3. Ba/F3 cells harboring the empty vector are used as a control. Approximately ten days before conducting the experiments, puromycin is left out.
(§2) For proliferation assays, Ba/F3 cells are seeded into 384-well plates at 1.5×1 (M cells/60 μL in growth media (RPMI-1640+10% FCS). Compounds (10 mM stock in DMSO) are added at logarithmic dose series using the ECHO acoustic liquid handler system (Beckman Coulter), normalizing for added DMSO and including DMSO controls. All compound treatments are performed in technical duplicates. For the TO time point measurement, untreated cells are analyzed at the time of compound addition. Treated cells are incubated for 72 h at 37° C. with 5% CO2 and cell viability is measured in the PerkinElmer Envision Multimode Reader using AlamarBlue™ (ThermoFisher) viability stain. Viability (stated as percent of control) is defined as relative fluorescence units RFU of each well divided by the RFU of cells in DMSO controls. IC50 values are determined from viability measurements by non-linear regression using a four-parameter model.

Ba/F3 cells KRAS G12C = assay: Ba/F3 proliferation assay (KRAS G12C); assay type: cell-based; conditions: Mus musculus, BaF3, 72 h, AlamarBlue viability
Procedure: as §1, §2

[2] = Caco-2 assay (permeability and efflux ratio); assay type: in vitro ADME; conditions: human; for Papp A→B at 90 min, 10 μM: Caco-2 apical to basolateral permeability, pH 7.4, read-out: Caco PappAB; for efflux ratio at 90 min, 10 μM: pH 7.4, Caco-2 efflux ratio PappBA/PappAB, read-out: Caco ER
Procedure: The assay provides information on the potential of a compound to pass the cell membrane, on the extent of oral absorption as well as on whether the compound is actively transported by uptake and/or efflux transporters. Permeability measurements across polarized, confluent Caco-2 cell monolayers grown on permeable filter supports (Corning, catalog #3391) are used. 10 μM test compound solution in assay buffer (128.13 mM NaCl, 5.36 mM KCl, 1 mM MgSO4, 1.8 mM CaCl2), 4.17 mM NaHCO3, 1.19 mM Na2HPO4, 0.41 mM NaH2PO4, 15 mM 2-[4-(2-hydroxyethyl)piperazin-1-yl]ethanesulfonic acid (HEPES), 20 mM glucose, pH 7.4) was added to the donor compartment of the cell chamber containing a monolayer of Caco-2 cells in between the donor and the receiver compartment. The receiver and donor compartments contain 0.25% bovine serum albumine (BSA) in assay buffer. Passive diffusion and/or active transport of compounds across the monolayer is measured in both apical to basolateral (a-b) and basolateral to apical (b-a) direction. a-b permeability (PappAB) represents drug absorption from the intestine into the blood and b-a permeability (PappBA) drug secretion from the blood back into the intestine via both passive permeability as well as active transport mechanisms mediated by efflux and uptake transporters that are expressed on the Caco-2 cells. After a pre-incubation of 25-30 min at 37° C., at predefined time points (0, 30, 60 and 90 min), samples were taken from the receiver and donor compartment, respectively. Concentrations of test compounds in samples were measured by HPLC/MS/MS, samples from the donor compartment were diluted 1:50 (v:v) with assay buffer, samples from receiver compartment were measured without dilution.
Apparent permeabilities in a-b (PappAB) and b-a (PappBA) directions are calculated according to the formula:
[formula] • Vrec [mL]: buffer volume in receiver compartment • Cdon [μmol/mL]: concentration of test compound in donor compartment at t=0 • ΔCrec: difference between concentrations of test compound in receiver compartment at start and end of incubation time • Δt: Incubation time • Vrec·ΔCrec/Δt [μmol/min]: Amount of compound transferred to receiver compartment per time • A [cm^2]: filter surface
Caco-2 efflux ratios (ER) are calculated as the ratio of PappBA/PappAB.

KRAS (G12D)::CRAF protein::protein interaction, sequence (P01116 other isoform, or with tags, fused parts or gaps G12D): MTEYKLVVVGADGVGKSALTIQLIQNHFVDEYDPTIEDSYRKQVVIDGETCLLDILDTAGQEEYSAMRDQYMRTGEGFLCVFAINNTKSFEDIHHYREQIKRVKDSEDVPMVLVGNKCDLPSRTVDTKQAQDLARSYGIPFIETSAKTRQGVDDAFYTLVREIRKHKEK

IC50 [1] | IC50 (Ba/F3 cells KRAS G12D) | IC50 (Ba/F3 cells KRAS G12C) | Papp A→B at 90 min, 10 μM [2] | efflux ratio at 90 min, 10 μM [2] | SMILES
32 nM | 9 nM | 4 nM |  |  | C[C@H](Oc1nc(-c2noc3c2CCC[C@@]32CCCc3sc(N)c(C#N)c32)nc2c1n(C)c(=O)n2[C@@H]1CCOC1)[C@@H]1CCCN1C [II-2]
460 nM | 344 nM | 310 nM |  |  | C[C@H](Oc1nc(-c2onc3c2CCC[C@@]32CCCc3sc(N)c(C#N)c32)nc2c1n(C)c(=O)n2[C@H]1CCCOC1)[C@@H]1CCCN1C [I-11]
2260 nM | 204 nM | 99 nM |  |  | COCCn1c(=O)n(C)c2c(O[C@@H](C)[C@@H]3CCCN3C)nc(-c3onc4c3CCC[C@@]43CCCc4sc(N)c(C#N)c43)nc21 [I-7]
263 nM | 37 nM | 17 nM |  |  | Cc1nn([C@@H]2CCOC2)c2nc(-c3onc4c3CCC[C@@]43CCCc4sc(N)c(C#N)c43)nc(O[C@@H](C)[C@@H]3CCCN3C)c12 [I-42]
18 nM | 8 nM | 1 nM |  |  | C[C@H](Oc1nc(-c2noc3c2CCC[C@@]32CCCc3sc(N)c(C#N)c32)nc2c1CNC[C@]21CCOC1)[C@@H]1CCCN1C [II-15]
41 nM | 9 nM | 4 nM |  |  | CO[C@H]1CCN(C)[C@@H]1[C@H](C)Oc1nc(-c2noc3c2CCC[C@@]32CCCc3sc(N)c(C#N)c32)nc2c1n(C)c(=O)n2[C@@H]1CCOC1 [II-1]
400 nM | 90 nM | 41 nM |  |  | CO[C@H]1C[C@@H]([C@H](C)Oc2nc(-c3onc4c3CCC[C@@]43CCCc4sc(N)c(C#N)c43)nc3c2n(C)c(=O)n3[C@@H]2CCOC2)N(C)C1 [I-2]
50 nM | 24 nM | 24 nM |  |  | Cc1nc2c(O[C@@H](C)[C@@H]3CCCN3C)nc(-c3onc4c3CCC[C@@]43CCCc4sc(N)c(C#N)c43)nc2n1[C@@H]1CCOC1 [I-39]
434 nM | 53 nM | 26 nM |  |  | C[C@H](Oc1nc(-c2onc3c2CCC[C@@]32CCCc3sc(N)c(C#N)c32)nc2c1n(C)c(=O)n2[C@@H]1CCOC1)[C@@H]1C[C@@H]2C[C@@H]2N1C [I-28]
 | 8 nM | 2 nM | 2.9 ×10⁻⁶ cm/s | 21.6 | C[C@H](Oc1nc(-c2noc3c2CCC[C@@]32CCCc3sc(N)c(C#N)c32)nc2c1CN(C1COC1)C[C@]21CCOC1)[C@@H]1CCCN1C [II-12]
 | 7 nM | 2 nM | 18 ×10⁻⁶ cm/s | 2.9 | CO[C@H]1CCN(C)[C@@H]1[C@H](C)Oc1nc(-c2noc3c2CCC[C@@]32CCCc3sc(N)c(C#N)c32)nc2c1CN(C1COC1)C[C@]21CCOC1 [II-13]
138 nM | 22 nM | 10 nM |  |  | C[C@H](Oc1nc(-c2onc3c2CCC[C@@]32CCCc3sc(N)c(C#N)c32)nc2c1n(C)c(=O)n2[C@@H]1CCOC1)[C@@H]1C[C@@H](F)CN1C [I-22]
 | 17 nM | 3 nM | 14 ×10⁻⁶ cm/s | 2.5 | C[C@@H]1COC[C@H](n2c(=O)n(C)c3c(O[C@@H](C)[C@@H]4CCCN4C)nc(-c4onc5c4CCC[C@@]54CCCc5sc(N)c(C#N)c54)nc32)C1 [I-44]
298 nM | 51 nM | 16 nM |  |  | C[C@H](Oc1nc(-c2onc3c2CCC[C@@]32CCCc3sc(N)c(C#N)c32)nc2c1n(C)c(=O)n2C12COC(C1)C2)[C@@H]1CCCN1C [I-15]
45 nM | 28 nM | 33 nM |  |  | C[C@H](Oc1nc(-c2onc3c2CCC[C@@]32CCCc3sc(N)c(C#N)c32)nc2c1ncn2[C@@H]1CCOC1)[C@@H]1CCCN1C [I-38]
255 nM | 49 nM | 32 nM |  |  | C[C@H](Oc1nc(-c2onc3c2CCC[C@@]32CCCc3sc(N)c(C#N)c32)nc2c1cnn2[C@@H]1CCOC1)[C@@H]1CCCN1C [I-43]
52 nM | 10 nM | 4 nM |  |  | CO[C@H]1CCN(C)[C@@H]1[C@H](C)Oc1nc(-c2onc3c2CCC[C@@]32CCCc3sc(N)c(C#N)c32)nc2c1n(C)c(=O)n2[C@@H]1CCOC1 [I-23]
 | 15 nM | 2 nM | 21 ×10⁻⁶ cm/s | 1.8 | CO[C@@H]1C[C@@H]([C@H](C)Oc2nc(-c3onc4c3CCC[C@@]43CCCc4sc(N)c(C#N)c43)nc3c2n(C)c(=O)n3[C@@]23COC[C@@H]2C3)N(C)C1 [I-46]
182 nM | 28 nM | 23 nM |  |  | Cc1cc2c(O[C@@H](C)[C@@H]3CCCN3C)nc(-c3onc4c3CCC[C@@]43CCCc4sc(N)c(C#N)c43)nc2n1[C@@H]1CCOC1 [I-40]
 | 6 nM | 1 nM | 43 ×10⁻⁶ cm/s | 0.6 | C[C@H](Oc1nc(-c2onc3c2CCC[C@@]32CCCc3sc(N)c(C#N)c32)nc2c1n(C)c(=O)n2[C@@]12COC[C@@H]1C2)[C@@H]1CC[C@H](C)N1C [I-45]
 | 10 nM | 3 nM | 24 ×10⁻⁶ cm/s | 2.3 | C[C@H](Oc1nc(-c2onc3c2CCC[C@@]32CCCc3sc(N)c(C#N)c32)nc2c1CN(C1COC1)C[C@]21CCOC1)[C@@H]1CC[C@H](C)N1C [I-55]
 | 13 nM | 4 nM | 8.4 ×10⁻⁶ cm/s | 7.1 | C[C@H](Oc1nc(-c2onc3c2CCC[C@@]32CCCc3sc(N)c(C#N)c32)nc2c1CN(C1COC1)C[C@]21CCOC1)[C@@H]1CCCN1C [I-56]
